Assay [1] deals with T1, M4 muscarinic receptor (Homo sapiens, UniProt P08173).
T1 construct: expressed in transfected cells; host or cells: CHO (M4-CHO)
T1 sequence (P08173 1-479): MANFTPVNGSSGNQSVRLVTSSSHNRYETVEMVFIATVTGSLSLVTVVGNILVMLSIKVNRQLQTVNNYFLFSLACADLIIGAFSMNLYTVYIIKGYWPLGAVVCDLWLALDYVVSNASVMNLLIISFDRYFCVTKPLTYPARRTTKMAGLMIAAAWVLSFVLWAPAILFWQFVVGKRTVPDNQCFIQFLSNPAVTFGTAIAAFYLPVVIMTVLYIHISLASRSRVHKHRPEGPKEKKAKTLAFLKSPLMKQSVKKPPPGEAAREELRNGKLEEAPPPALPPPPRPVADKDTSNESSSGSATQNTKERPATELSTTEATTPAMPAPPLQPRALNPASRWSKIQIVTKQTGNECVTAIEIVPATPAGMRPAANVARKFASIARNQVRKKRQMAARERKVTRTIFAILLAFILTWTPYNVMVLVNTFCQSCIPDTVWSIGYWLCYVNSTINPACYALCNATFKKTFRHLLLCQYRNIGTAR
Nature of the assay: Functional mobilization of intracellular calcium (FLIPR) in M4-CHO cells. It counts as cell-based. Conditions: Table 5; for Emax: 100% efficacy is the maximum response obtained with the Carbachol control; for EC50: CHO cells expressing M4, calcium mobilization. An outline of the steps: (§1)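 Two modes: direct compound addition for agonism, or 15 min compound pre-incubation (or co-application) before carbachol at EC80 for inhibition. Calcium signal from Fluo-3 AM or Calcium 3 dye in CHO cells, 1 mM probenecid, pH 7.4, read 60 sec at 488/540 nm; DMSO 0.5% final.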
In general terms: Calcium flux is commonly read through the fluorescence of an indicator in the cells.

Assay [2] has as its target T2, M1 muscarinic receptor (Homo sapiens, UniProt P11229).
T2 construct: expressed in transfected cells; host or cells: CHO (M1-CHO)
T2 sequence (P11229 1-460): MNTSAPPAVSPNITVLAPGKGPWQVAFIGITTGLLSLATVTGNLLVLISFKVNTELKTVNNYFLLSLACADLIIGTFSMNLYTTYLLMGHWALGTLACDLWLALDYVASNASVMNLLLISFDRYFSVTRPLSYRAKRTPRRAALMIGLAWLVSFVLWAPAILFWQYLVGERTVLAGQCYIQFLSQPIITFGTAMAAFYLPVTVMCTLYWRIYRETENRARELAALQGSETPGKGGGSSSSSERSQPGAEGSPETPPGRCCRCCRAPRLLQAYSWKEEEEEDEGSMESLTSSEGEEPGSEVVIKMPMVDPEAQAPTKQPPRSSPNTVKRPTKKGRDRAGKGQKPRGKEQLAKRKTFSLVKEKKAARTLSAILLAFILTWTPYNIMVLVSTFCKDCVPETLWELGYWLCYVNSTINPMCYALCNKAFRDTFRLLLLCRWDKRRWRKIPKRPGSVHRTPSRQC
Briefly: Functional mobilization of intracellular calcium (FLIPR) in M1-CHO cells. It is filed as cell-based. Conditions: Table 5; for Emax: 100% efficacy is the maximum response obtained with the Carbachol control; for EC50: CHO cells expressing M1, calcium mobilization. An outline of the steps:
as §1

Broadly, the Emax is the maximal effect, on the per cent scale that the assay sets. For orientation: EC50 means the concentration that produces a half-maximal response. As to `CN(C)C(=O)N1CC2(CCN(C3CCN(c4nccs4)CC3)CC2)c2cc(F)ccc21` [compound 1034], in assay [1], the maximum response (Emax) was 25 to 100% and the concentration for a half-maximal effect (EC50) is under 2000 nM. Further, in assay [2], the Emax lay in the range of 25 to 100% and the EC50 is under 2000 nM.

In the case of `CN(C)C(=O)N1CC2(CCN(C[C@H]3CCN(c4cnccn4)C3)CC2)c2cc(F)ccc21` [compound 1035], in assay [1], the Emax lay in the range of 25 to 100% and the concentration for a half-maximal effect (EC50) is under 2000 nM. In assay [2], the Emax is over 100% and the 50% effective concentration (EC50) is under 2000 nM.

As to `CN(C)C(=O)N1CC2(CCN(C[C@@H]3CCN(c4cnccn4)C3)CC2)c2cc(F)ccc21` [compound 1036], in assay [1], the maximal response (Emax) is 25 to 100% and the 50% effective concentration (EC50) is under 2000 nM. In assay [2], the Emax is 25 to 100% and the EC50 is under 2000 nM.

For `CN(C)C(=O)N1CC2(CCN(C[C@H]3CCN(c4nccs4)C3)CC2)c2cc(F)ccc21` [compound 1037], the Emax in assay [1] and in assay [2] was 25 to 100% in each case. Besides, the EC50 in assay [1] was under 2000 nM; in assay [2], 2000 to 10000 nM.

With `CN(C)C(=O)N1CC2(CCN(C[C@@H]3CCN(c4nccs4)C3)CC2)c2cc(F)ccc21` [compound 1038], the Emax in assay [1] and in assay [2] was 25 to 100% in each case. Further, the EC50 in assay [1] is under 2000 nM; in assay [2], 2000 to 10000 nM.

For the compound `CN(C)C(=O)N1CC2(CCN(C3CCN(c4ccccn4)CC3)CC2)c2cc(F)ccc21` [compound 1039], in assay [1], the Emax was in the range of 25 to 100% and the concentration for a half-maximal effect (EC50) is under 2000 nM. In assay [2], the maximal response (Emax) was in the range of 25 to 100% and the EC50 was 2000 to 10000 nM.

Regarding `CN(C)C(=O)N1CC2(CCN(C3CCN(c4cccnc4)CC3)CC2)c2cc(F)ccc21` [compound 1040], in assay [1], the Emax lay in the range of 25 to 100% and the EC50 is under 2000 nM. In addition, in assay [2], the Emax was in the range of 25 to 100% and the EC50 was under 2000 nM.

Consider `CN(C)C(=O)N1CC2(CCN(C3CCN(c4ccsc4)CC3)CC2)c2cc(F)ccc21` [compound 1041], for which the Emax in assay [1] and in assay [2] was 25 to 100% each time. Also, the EC50 in assay [1] and in assay [2] was 2000 to 10000 nM in each case.

(Values after patent US7786141B2 (Vertex Pharmaceuticals Incorporated, priority 2004, dated 2010).)
